In one test the target is T1, LSD1 (Homo sapiens, UniProt O60341).
T1 construct: Recombinant human LSD1 (172–852 aa); by word order LSD1 from Sino Biological
As to the kind of experiment: Lance Ultra LSD1 demethylase TR-FRET enzyme inhibition assay. In kind it is biochemical. To be noted: for LSD2/LSD1 selectivity (folds): ratio of LSD2 IC50 to LSD1 IC50; for IC50: recombinant human LSD1 (172–852 aa) 2 nM, Bio-H3K4me2 substrate, 1 h, TR-FRET, mean ± SD, n = 3. An excerpt:
(§1) These were utilized in both in vitro and in vivo assays. Iscove’s Modified Dulbecco’s Medium (IMDM), Roswell Park Memorial Institute (RPMI)-1640 medium, fetal bovine serum (FBS) and penicillin/streptomycin were purchased from Gibco (Grand Island, New Nork, United States). Recombinant human LSD1 (172–852 aa) and full-length LSD2 were obtained from Sino Biological Inc. and ActiveMotif.
(§2) The inhibitory effects of the tested compounds on LSD1 and LSD2 enzymes were methodically assessed using the Lance Ultra LSD1 Histone H3-Lysine 4 Demethylase Assay Kit from PerkinElmer, adhering to previously published methodologies ([Li et al., 2022]). In brief, the reaction was initiated by adding 4 μL of enzyme solution, with concentrations specified at 2 nM for LSD1 or 172 nM for LSD2, 4 μL of substrate solution [2.5 μM Bio-H3K4me2 ([…])], and 2 μL of tested compound to a Tris buffer (50 mM Tris-HCl, 50 mM NaCl, 0.01% Tween 20, 1 mM DTT, 10 μM FAD, 10% glycerol, pH 9.0) at room temperature and incubated for 1 h. Following the incubation, 5 μL of a detection mixture, comprising an Eu-labeled H3K4me0 antibody and ULight Streptavidin, was added to the reaction. The fluorescence intensity was then measured employing TR-FRET mode with excitation and emission wavelengths set at 320 nm and 665 nm, respectively, utilizing the Envision (PerkinElmer) system. Each experiment was performed in triplicate.

The target in another test is T2, LSD2 (Homo sapiens, UniProt Q8NB78).
T2 construct: full-length LSD2; by word order LSD2 from ActiveMotif
T2 sequence (Q8NB78 1-822): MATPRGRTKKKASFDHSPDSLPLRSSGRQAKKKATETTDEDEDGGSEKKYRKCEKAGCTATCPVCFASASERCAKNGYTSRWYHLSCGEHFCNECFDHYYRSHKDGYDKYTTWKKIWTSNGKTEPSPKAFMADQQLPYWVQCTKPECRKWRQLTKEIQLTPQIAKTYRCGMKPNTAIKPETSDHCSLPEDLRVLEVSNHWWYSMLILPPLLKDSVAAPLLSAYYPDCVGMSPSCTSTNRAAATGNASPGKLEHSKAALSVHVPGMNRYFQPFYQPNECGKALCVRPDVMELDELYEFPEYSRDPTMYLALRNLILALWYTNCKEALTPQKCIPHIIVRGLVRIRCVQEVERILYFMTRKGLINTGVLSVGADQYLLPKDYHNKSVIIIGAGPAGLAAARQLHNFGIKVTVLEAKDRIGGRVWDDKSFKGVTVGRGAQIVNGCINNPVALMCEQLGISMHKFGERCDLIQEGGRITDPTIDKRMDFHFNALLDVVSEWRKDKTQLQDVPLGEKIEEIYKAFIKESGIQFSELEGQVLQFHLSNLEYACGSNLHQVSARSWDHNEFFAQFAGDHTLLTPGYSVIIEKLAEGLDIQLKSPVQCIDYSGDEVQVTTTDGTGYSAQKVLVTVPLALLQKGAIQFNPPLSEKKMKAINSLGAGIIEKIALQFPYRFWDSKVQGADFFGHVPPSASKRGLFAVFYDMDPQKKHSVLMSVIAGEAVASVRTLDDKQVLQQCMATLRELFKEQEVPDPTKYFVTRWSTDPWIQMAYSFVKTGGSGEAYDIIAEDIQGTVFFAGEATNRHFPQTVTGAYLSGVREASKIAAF
Briefly: Lance Ultra demethylase TR-FRET enzyme inhibition assay, LSD2. It is filed as biochemical. The conditions noted are these: full-length LSD2 172 nM, Bio-H3K4me2 substrate, 1 h, mean ± SD, n = 3.
Source text: as §1, §2

The subject of a further test is MV-4-11 cells. Briefly: MTS cell proliferation assay. In kind it is cell-based. To be noted: Homo sapiens, MV4-11, LSD1-addicted MV-4-11 leukemia cells, 72 h. The method, then: (§3) The myeloid leukemia cell lines MV-4-11, MOLT-4, MOLM-16, HL-60, and the human B lymphocyte cell line […] were purchased from the American Type Culture Collection (ATCC, Manassas, VA, United States). The myeloid leukemia cell line HAL-01 was obtained from the Deutsche Sammlung von Mikroorganismen und Zellkulturen GmbH (DSMZ, Braunschweig, Germany). All cells were cultured in IMDM or RPMI -1640 medium supplemented with 10% FBS, 100 U/mL penicillin, and 100 μg/mL streptomycin. The cells were maintained in a humidified incubator with an atmosphere of 5% CO2 at 37°C.
(§4) The in vitro anti-proliferative activity of the compounds was determined using the CellTiter 96® AQueous NonRadioactive Cell Proliferation Assay Kit (Promega, Madison, United States) as previously described ([Ji et al., 2017]). In brief, 5–10 × 10^3 cells and 180 μL of medium were first seeded into each well of a 96-well plate. Subsequently, the cells were exposed to either 0.2% Dimethyl sulfoxide (DMSO, Aladdin Reagent, Shanghai, China) or a serial dilution of the compounds, prepared from a 10 mM stock solution in DMSO, with the final concentration of DMSO being 0.2% for 72 h. 20 μL of MTS reagent was added to each well, and the culture was incubated in the dark at 37°C for 4 h. Finally, the optical density (OD) was then recorded at 490 nm and 690 nm using a microplate reader from Molecular Devices. The proliferation inhibition rate was calculated according to the following formula: inhibition ratio = (OD of DMSO treated wells - OD of compound treated wells)/(OD of DMSO treated wells - OD of blank wells) × 100%. The IC50 values of the compounds inhibiting cell proliferation were calculated using GraphPad Prism 10 (GraphPad Software Inc., San Diego, CA).

A further test concerns RPMI-8226 cells. Briefly: MTS cell proliferation assay. It is filed as cell-based. The conditions noted are these: Homo sapiens, LSD1-non-sensitive RPMI-8226 cells, 72 h. The method, then: as §3, §4

Where only a bound is given, the exact number is not on record here.

With `O=S(=O)(c1cccc(-c2ccccc2)c1)N1CCc2cc(C3CC3NCC3CCNCC3)ccc21` (stereo not drawn) [LTM-2], the “LSD2/LSD1 selectivity (folds)” value on LSD1 is listed as 215 folds. For the same molecule, the IC50 was 10.2 ± 2.71 nM at LSD1, 2200 nM against LSD2, 0.74 ± 0.06 µM in the test on MV-4-11 cells and more than 100 µM in the test with RPMI-8226 cells.

For `O=S(=O)(c1cccc(CC2CC2)c1)N1CCc2cc(C3CC3NCC3CCNCC3)ccc21` (stereo not drawn) [LTM-5], the “LSD2/LSD1 selectivity (folds)” value at LSD1 worked out at 92 folds. Also, the IC50 is 7.31 ± 0.46 nM on LSD1, 674 ± 21.5 nM on LSD2, 0.51 ± 0.03 µM with MV-4-11 cells and more than 100 µM with RPMI-8226 cells.

Take `O=S(=O)(c1cccc(CC2CCCCC2)c1)N1CCc2cc(C3CC3NCC3CCNCC3)ccc21` (stereo not drawn) [LTM-6]: the “LSD2/LSD1 selectivity (folds)” value at LSD1 was more than 302 folds. The IC50 at LSD1 is 16.5 ± 2.39 nM; on LSD2, more than 5000 nM; with MV-4-11 cells, 0.98 ± 0.07 µM; in the test with RPMI-8226 cells it was more than 100 µM.

For the molecule `O=C(O)c1ccc(CN2CCC(CN[C@@H]3C[C@H]3c3ccccc3)CC2)cc1` [GSK2879552, reference compound], the “LSD2/LSD1 selectivity (folds)” value on LSD1 stood at 4 folds. Also, the IC50 at LSD1 was 24.5 ± 2.26 nM; at LSD2 it was 104 ± 5.75 nM; in the test with MV-4-11 cells it was 1.17 ± 0.28 µM; with RPMI-8226 cells, 21.3 ± 2.69 µM.

For the molecule `C=CCc1cccc(S(=O)(=O)N2CCc3cc(C4CC4NCC4CCNCC4)ccc32)c1` (stereo not drawn) [LTM-4], the “LSD2/LSD1 selectivity (folds)” value on LSD1 turned out to be 97 folds. In addition, the IC50 on LSD1 was 8.92 ± 0.57 nM; at LSD2, 861 ± 26.7 nM; in the test on MV-4-11 cells, 0.63 ± 0.05 µM; with RPMI-8226 cells, more than 100 µM.

Consider `O=S(=O)(c1ccc(CO)c(Cl)c1)N1CCc2cc(C3CC3NCC3CCNCC3)ccc21` (stereo not drawn) [LTM-3], for which the “LSD2/LSD1 selectivity (folds)” value at LSD1 was 668 folds. For the same molecule, the concentration for half-maximal inhibition (IC50) is 4.57 ± 0.32 nM on LSD1, 3050 nM at LSD2, 0.32 ± 0.04 µM in the test with MV-4-11 cells and more than 100 µM in the test with RPMI-8226 cells.
